From US9849130B2 (KamTek, Inc., priority 2014, dated 2017)
Converted amounts (≈) assume the structure as drawn. Where two headings read alike, the source gives them in different places.

Experiments:
CD strains = experiment: In vitro activity of CFM + additional antimicrobial agent against CD (MIC alone/combination, FIC, ΣFIC); format: cell-based, Clostridium difficile
Enterococci faecium = experiment: MIC by microdilution in Mueller-Hinton broth against Enterococci faecium strains; format: cell-based, Enterococcus faecium; settings: Enterococcus faecium, Mueller-Hinton broth, read-out: MIC
[1] = tested on: Staphylococcus aureus strains; experiment: MIC by microdilution in Mueller-Hinton broth against Staphylococcus aureus strains; format: cell-based; settings: Staphylococcus aureus
[2] = tested on: Clostridium difficile (CD) strains; experiment: microbe, parasite or virus in culture; format: cell-based
[3] = tested on: Lachnospiraceae and related bacterial strains; experiment: MIC against Lachnospiraceae and related bacterial strains; format: cell-based, Lachnospiraceae spp.
Enterococcus faecalis = experiment: MIC by microdilution in Mueller-Hinton broth against Enterococcus faecalis strains; format: cell-based; settings: Enterococcus faecalis
[4] = Test 6, CD strain NR32890, CFM + VAN
[5] = Test 7, CD strain NR32885, CFM + VAN
[6] = Test 8, CD strain NR32885, CFM + MET
[7] = Test 9, CD strain NR32885, CFM + VAN
[8] = Test 10, CD strain NR32885, CFM + MET
[9] = Test 11, CD strain NR32885, CFM + VAN
[10] = Test 12, CD strain NR32885, CFM + MET
[11] = Test 13, CD strain BAA1805 (BI/NAP1/027), CFM + VAN
[12] = Test 14, CD strain BAA1805 (BI/NAP1/027), CFM + MET
[13] = Test 15, CD strain BAA1805 (BI/NAP1/027), CFM + MET
[14] = Test 16, CD strain BAA1805 (BI/NAP1/027), CFM + VAN
[15] = Test 17, CD strain BAA1805 (BI/NAP1/027), CFM + MET
[16] = Test 18, CD strain NR32888, CFM + VAN
[17] = Test 19, CD strain NR32888, CFM + MET
[18] = Test 20, CD strain NR32888, CFM + VAN
[19] = Test 21, CD strain NR32888, CFM + MET

What does the source list for CC(C)N=c1cc2n(-c3ccc(Cl)cc3)c3ccccc3nc-2cc1Nc1ccc(Cl)cc1 [CFM, 3-(p-chloroanilino)-10-(p-chlorophenyl)-2,10-dihydro-2-iso-propyliminophenazine]?
ΣFIC (CD strains; Test 5, CD strain NR32889, sum for combination CFM + VAN): 2; FIC (CD strains; [4]): 0.25; MIC alone (CD strains; [4]): 0.125 µg/mL; MIC combination (CD strains; [4]): 0.031 µg/mL; ΣFIC (CD strains; Test 6, CD strain NR32890, sum for combination CFM + VAN): 0.75; FIC (CD strains; [5]): 0.5; MIC alone (CD strains; [5]): 0.125 µg/mL; MIC combination (CD strains; [5]): 0.062 µg/mL; ΣFIC (CD strains; Test 7, CD strain NR32885, sum for combination CFM + VAN): 1; FIC (CD strains; [6]): 0.25; MIC alone (CD strains; [6]): 0.125 µg/mL; MIC combination (CD strains; [6]): 0.031 µg/mL; ΣFIC (CD strains; Test 8, CD strain NR32885, sum for combination CFM + MET): 0.375; FIC (CD strains; [7]): 0.25; MIC combination (CD strains; [7]): 0.062 µg/mL; ΣFIC (CD strains; Test 9, CD strain NR32885, sum for combination CFM + VAN): 0.5; FIC (CD strains; [8]): 0.031; MIC alone (CD strains; [8]): 0.125 µg/mL; MIC combination (CD strains; [8]): 0.0039 µg/mL; ΣFIC (CD strains; Test 10, CD strain NR32885, sum for combination CFM + MET): 0.281; FIC (CD strains; [9]): 0.25; MIC combination (CD strains; [9]): 0.062 µg/mL; ΣFIC (CD strains; Test 11, CD strain NR32885, sum for combination CFM + VAN): 0.5; FIC (CD strains; [10]): 0.031; MIC combination (CD strains; [10]): 0.0078 µg/mL; ΣFIC (CD strains; Test 12, CD strain NR32885, sum for combination CFM + MET): 0.281; FIC (CD strains; [11]): 0.25; MIC combination (CD strains; [11]): 0.062 µg/mL; ΣFIC (CD strains; Test 13, CD strain BAA1805 (BI/NAP1/027), sum for combination CFM + VAN): 0.312; FIC (CD strains; [12]): 0.015; MIC combination (CD strains; [12]): 0.0039 µg/mL; ΣFIC (CD strains; Test 14, CD strain BAA1805 (BI/NAP1/027), sum for combination CFM + MET): 0.031; FIC (CD strains; [13]): 0.06; MIC combination (CD strains; [13]): 0.015 µg/mL; ΣFIC (CD strains; Test 15, CD strain BAA1805 (BI/NAP1/027), sum for combination CFM + MET): 0.185; FIC (CD strains; [14]): 0.25; MIC combination (CD strains; [14]): 0.062 µg/mL; ΣFIC (CD strains; Test 16, CD strain BAA1805 (BI/NAP1/027), sum for combination CFM + VAN): 0.5; FIC (CD strains; [15]): 0.031; MIC combination (CD strains; [15]): 0.0078 µg/mL; ΣFIC (CD strains; Test 17, CD strain BAA1805 (BI/NAP1/027), sum for combination CFM + MET): 0.156; FIC (CD strains; [16]): 0.5; MIC combination (CD strains; [16]): 0.125 µg/mL; ΣFIC (CD strains; Test 18, CD strain NR32888, sum for combination CFM + VAN): 1; FIC (CD strains; [17]): 0.062; MIC combination (CD strains; [17]): 0.015 µg/mL; ΣFIC (CD strains; Test 19, CD strain NR32888, sum for combination CFM + MET): 0.125; FIC (CD strains; [18]): 0.25; MIC combination (CD strains; [18]): 0.062 µg/mL; ΣFIC (CD strains; Test 20, CD strain NR32888, sum for combination CFM + VAN): 0.75; FIC (CD strains; [19]): 0.031; MIC combination (CD strains; [19]): 0.0078 µg/mL; ΣFIC (CD strains; Test 21, CD strain NR32888, sum for combination CFM + MET): 0.28; MIC (Enterococci faecium; E. faecium NR 31903): 4 µg/mL (≈ 8.45 µM); MIC (Enterococci faecium; E. faecium NR 31909): 2 µg/mL (≈ 4.22 µM); MIC (Enterococci faecium; E. faecium NR 31912): 2 µg/mL (≈ 4.22 µM); MIC (Enterococci faecium; E. faecium NR 31915): 16 µg/mL (≈ 33.8 µM); MIC (Enterococci faecium; E. faecium NR 31916): 8 µg/mL (≈ 16.9 µM); MIC ([1]; Staphylococcus aureus strain NR 10129, read-out: MIC): 16 µg/mL (≈ 33.8 µM); MIC ([1]; Staphylococcus aureus strain NR 10186, read-out: MIC): 2 µg/mL (≈ 4.22 µM); MIC ([1]; Staphylococcus aureus strain NR 10187, read-out: MIC): > 32 µg/mL; MIC ([1]; Staphylococcus aureus strain NR 10188, read-out: MIC): 8 µg/mL (≈ 16.9 µM); MIC ([1]; Staphylococcus aureus strain NR 10189, read-out: MIC): 8 µg/mL (≈ 16.9 µM); MIC ([1]; Staphylococcus aureus strain NR 10191, read-out: MIC): 4 µg/mL (≈ 8.45 µM); MIC ([1]; Staphylococcus aureus strain NR 10192, read-out: MIC): 8 µg/mL (≈ 16.9 µM); MIC ([1]; Staphylococcus aureus strain NR 10193, read-out: MIC): 4 µg/mL (≈ 8.45 µM); MIC ([1]; Staphylococcus aureus strain NR 10194, read-out: MIC): 4 µg/mL (≈ 8.45 µM); MIC ([1]; Staphylococcus aureus strain NR 10198, read-out: MIC): 16 µg/mL (≈ 33.8 µM); MIC50 ([2]; Clostridioides difficile): 0.062 µg/mL (≈ 0.131 µM); MIC90 ([2]; Clostridioides difficile): 0.25 µg/mL (≈ 0.528 µM); MIC ([2]; Clostridioides difficile, BAA1805, CD isolate BAA1805 (hyper-virulent strain BI/NAP1/027), Table 6): 0.125 µg/mL (≈ 0.264 µM); MIC ([2]; Clostridioides difficile, BAA1805, CD strain BAA1805 (hyper-virulent strain BI/NAP1/027), BB): 0.125 µg/mL (≈ 0.264 µM); MIC ([2]; Clostridioides difficile, BAA1805, CD strain BAA1805 (hyper-virulent strain BI/NAP1/027), BHI): 0.125 µg/mL (≈ 0.264 µM); MIC50 ([2]; n = 37): 0.062 µg/mL (≈ 0.131 µM); MIC90 ([2]; n = 37): 0.25 µg/mL (≈ 0.528 µM); MIC Range ([2]; n = 37): ≦0.031-0.25 μg/ml; MIC [3]: 0.125 µg/mL (≈ 0.264 µM); MIC ([3]; Clostridiales bacterium, Clostridiales bacterium HM-84, broth microdilution, brucella broth, read-out: MIC): ≤ 0.031 µg/mL; MIC ([3]; Clostridiales bacterium, Clostridiales bacterium HM-182, broth microdilution, brucella broth, read-out: MIC): 0.25 µg/mL (≈ 0.528 µM); MIC ([3]; Eubacterium sp. HM-178, broth microdilution, brucella broth): 0.125 µg/mL (≈ 0.264 µM); MIC ([3]; Lachnospiraceae sp. HM-7, broth microdilution, brucella broth, read-out: MIC): ≤ 0.031 µg/mL; MIC ([3]; Lachnospiraceae sp. HM-150, broth microdilution, brucella broth, read-out: MIC): 0.25 µg/mL (≈ 0.528 µM); MIC ([3]; Lachnospiraceae sp. HM-153, broth microdilution, brucella broth): 0.125 µg/mL (≈ 0.264 µM); MIC ([3]; Lachnospiraceae sp. HM-154, broth microdilution, brucella broth, read-out: MIC): 0.5 µg/mL (≈ 1.06 µM); MIC ([3]; Lachnospiraceae sp. HM-161, broth microdilution, brucella broth, read-out: MIC): 0.25 µg/mL (≈ 0.528 µM); MIC ([3]; Lachnospiraceae sp. HM-480, broth microdilution, brucella broth, read-out: MIC): 0.062 µg/mL (≈ 0.131 µM); MIC ([3]; Lachnospiraceae sp. HM-558, broth microdilution, brucella broth, read-out: MIC): 0.062 µg/mL (≈ 0.131 µM); MIC ([3]; Lachnospiraceae sp. HM-768, broth microdilution, brucella broth, read-out: MIC): ≤ 0.031 µg/mL; MIC ([3]; Lachnospiraceae sp. HM-868, broth microdilution, brucella broth, read-out: MIC): 2 µg/mL (≈ 4.22 µM); MIC ([3]; Peptostreptococcaceae sp. HM-766, broth microdilution, brucella broth, read-out: MIC): 1 µg/mL (≈ 2.11 µM); susceptibility of Lachnospiraceae and related organisms (in words) ([3]; most of the members of this family): susceptible; MIC (Enterococcus faecalis; E. faecalis NR 31884, read-out: MIC): 32 µg/mL (≈ 67.6 µM); MIC (Enterococcus faecalis; E. faecalis NR 31885, read-out: MIC): 32 µg/mL (≈ 67.6 µM); MIC (Enterococcus faecalis; E. faecalis NR 31886, read-out: MIC): 32 µg/mL (≈ 67.6 µM); MIC (Enterococcus faecalis; E. faecalis NR 31887, read-out: MIC): 16 µg/mL (≈ 33.8 µM); MIC (Enterococcus faecalis; E. faecalis NR 31888, read-out: MIC): 32 µg/mL (≈ 67.6 µM)
